Measured values as given in patent publication US7183440B2, “Pharmaceutically useful compounds” (priority 2005, dated 2007).
Read-outs that look alike come from different tables or passages of the source.

What was measured:
[1] = test system: Sendai virus; test: Replication of Sendai virus in 37RC cells, virus yield by haemagglutinin titration; type: cell-based; details: Respirovirus muris, read-out: ID50/μM
Method: Monkey kidney 37RC cells were grown at 37° C. in RPMI medium supplemented with 5% foetal bovine serum (FBS), L-glutarine (2 mM) and antibiotics. Sendai virus was grown in the allantoic cavity of 10-day-old embryonated eggs. Viral titre was expressed in haemagglutinating units (HAU) per ml; haemagglutinin titration was done according to standard procedures, as described in C. Amici et al. (J. Virol. 68: 6890–6899, 1994). […] Confluent 37RC monolayers were infected with Sendai Virus (5 HAU/ml) for 1 h at 37° C. After 1 hour incubation, viral inoculum was removed and cells were treated with the test compounds at different concentrations. Virus yields were determined 24 h post infection by haemagglutinin titration. Mock-infected cells were treated identically and processed for cytotoxicity assay (Neutral Red assay) at the same time (see below). The results were expressed as HAU/ml (each point represents the mean of duplicate samples).

[2] = test system: HSF; test: HSF activation, luciferase reporter controlled by the human hsp70 promoter in HeLa cell clone 13B; type: cell-based; details: read-out: HSF AC200/μM
Method: (§1) HeLa cell clone 13B, stably transfected with a luciferase reporter plasmid controlled by the human hsp70 promoter, and HeLa κB-transformed cells, stably transfected with a luciferase reporter plasmid controlled by a synthetic NF-κB-STM construct, were maintained in DMEM medium supplemented with 10% FBS, L-glutamine (2 mM) and G418 (250 μg/ml) at 37° C. in a 5% CO2 humidified atmosphere.
(§2) Cells were seeded at a density of 4×10^4 cells/well in 96-well plates. After 18–20 h, the medium was removed and cells were treated for 8 h with the test compounds (100 μl) at the appropriate dilutions in serum-free medium. For the NF-κB-dependent reporter gene assay, cells were stimulated with TPA (25 ng/ml) 2 h after exposure to the compounds.
(§3) After incubation, the medium was removed and cells were lysed in 10 μl of lysis buffer. The luciferase activity was determined by adding 100 μl of substrate and measuring the release of light using a Victor 1420 microplate reader (Wallac, Finland).
(§4) The AC200/μM for HSF is the concentration at which the tested compound doubled the HSF activity in this assay. The IC50/μM for NF-κB is the concentration at which the tested compound halved the NF-κB activity in this assay. […] The LC50/μM is the concentration at which the tested compound killed half the cells in each assay. […] (n.d. means not done)

[3] = test system: HeLa cells; test: in vitro; type: cell-based; details: human, 8 h
Method: HeLa cells were plated in 96-well microtiter plates in 100 μl culture medium (4×10^4/well). After 20 hours, the cells were exposed to the test compounds at different dilutions and incubated for the next 8 h at 37° C. in a 5% CO2 humidified atmosphere. After 6 h incubation, the Alamar Blue was added in an amount equal to 10% of the culture volume (10 μl). Two hours after the addition of the Alamar Blue, the fluorescence was measured using a Victor 1420 microplate reader.

[4] = in vitro; type: cell-based; details: monkey, 50% lethal dose/concentration, neutral red assay, 37RC cells, read-out: LC50/μM
Method: Cell viability was determined using the Neutral Red assay.

[5] = test system: NF-κB; test: NF-κB-dependent luciferase reporter gene assay in HeLa κB-transformed cells stimulated with TPA; type: cell-based, human
Method: as §1, §2, §3
The fragment Kpn I-BamH I from the pGL3 basic vector containing the luciferase gene (PROMEGA) was inserted in the pcDNA3 vector (INVITROGEN) digested with Bgl II-KpnI. (This digestion removes the CMV-promoter from pcDNA3.) The resulting new vector was digested with Kpn I-Hind III and a promoter containing a ‘5×NF-κB binding sites-TATA box’ sequence was inserted upstream of the luciferase gene. This vector has been named STM.
To obtain stable HeLa cell lines expressing the luciferase gene under the control of NF-κB, HeLa cells were transfected (using lipofectamine plus GIBCO) with the STM-Pvu I linearized vector, and selected for 20 days with G418 (800 μg/ml). After selection, the resistant HeLa cell pool was controlled (in quadruplicate samples) for luciferase activity after stimulation with TNFα, IL-1 and TPA.
as §4

[6] = test system: Monkey kidney 37RC cells; type: cell-based; details: concentration 100% toxic to uninfected 37RC cells, visually by microscopy
[7] = in vitro
Method: (§5) This assay was carried out on HeLa cells using a technique analogous to that described below in Example 36(b) for Monkey Kidney 37RC cells.
as §4
(§6) Cell viability was determined using the Neutral Red assay. 37RC cells were seeded at density of 6×10^4 cells/well in 24-well plates and incubated for 24 h. Confluent 37RC monolayers were treated with the test compounds at different dilutions for 24 h at 37° C. After incubation, the medium was removed and the cells were incubated with RPMI medium containing 40 μg/ml Neutral Red dye (500 μl/well). After 2 h at 37° C., the monolayers were washed with phosphate-buffered saline (PBS) and then with a solution containing 1% CaCl2 and 0.5% formaldehyde. After washing, a solution containing 1% acetic acid/50% ethanol was added to the monolayers (250 μl/well). After 10 min at room temperature, the absorbance was determined with a microplate reader (Victor 1420, Wallac) at 540 nm.

[8] = test system: HeLa cells; test: in vitro; details: read-out: Toxicity Neutral Red LC50/μM; HeLa cells; concentration that killed half the cells
Method: as §5, §4, §6

[9] = Homo sapiens, concentration at which the compound doubled HSF activity, HeLa clone 13B, 8 h treatment
[10] = Homo sapiens, concentration that halved NF-κB activity, HeLa reporter cells, TPA 25 ng/ml, 8 h treatment

Compound	EC (2-fold HSF activity) [2, 9]	CC50 [3]	IC50 [5, 10]	CC50 at 24 h ([7]; human)	also measured
CC(C)(C)OC(=O)NC1C=CC(=O)/C1=C/c1ccc(Cl)cc1 (centres unmarked) [CTC-247, [(E)-5-(4-Chloro-benzylidene)-4-oxo-cyclopent-2-enyl]-carbamic acid tert-butyl ester]	2 µM	> 800 µM	9 µM	72 µM	IC50 ([1]; 50% inhibitory dose/concentration at 24 hours, Sendai virus in 37RC cells): 0.6 µM; CC50 at 24 h [4]: 3.4 µM; TD100/μM [6]: 10 µM
CC(C)(C)OC(=O)NC1C=CC(=O)/C1=C/c1ccccc1 (centres unmarked) [CTC-248, ((E)-5-Benzylidene-4-oxo-cyclopent-2-enyl)-carbamic acid tert-butyl ester]	1.8 µM	> 800 µM	4 µM	33 µM	IC50 ([1]; 24 h): 0.6 µM; CC50 at 24 h [4]: 33 µM; TD100/μM [6]: 10 µM
O=C1C=CC(Nc2ccccc2)C1 (centres unmarked) [CTC-252, 4-Phenylamino-cyclopent-2-one]	27 µM	> 800 µM	57 µM	–	–
O=C1C=CC(NC(=O)Oc2ccccc2)C1 (centres unmarked) [CTC-260, (4-Oxocyclopent-2-enyl)-carbamic acid phenyl ester]	10 µM	–	9 µM	–	CC50 at 24 h [7]: 74 µM
CCOC(=O)N(C(=O)OC(C)(C)C)C1C=CC(=O)C1 (centres unmarked) [CTC-267, N-tert-Butoxycarbonyl-(4-Oxocyclopent-2-enyl)-carbamic acid ethyl ester]	18 µM	–	35 µM	233 µM	–
CCOC(=O)NC1C=CC(=O)C1 (centres unmarked) [CTC-271, (4-Oxocyclopent-2-enyl)-carbamic acid ethyl ester]	49 µM	–	39 µM	104 µM	–
Cc1cc(C)c(/C=C2/C(=O)C=C[C@@H]2NC(=O)OC(C)(C)C)c(C)c1 [CTC-285, (1S)-[4-Oxo-(E)-5-(2,4,6-trimethyl-benzylidene)-cyclopent-2-enyl]-carbamic acid tert-butyl ester]	< 6.2 µM	–	10 µM	25 µM	–
O=C1C=CC(NC(=O)CCl)C1 (centres unmarked) [CTC-304, 2-Chloro-N-(4-oxo-cyclopent-2-enyl)-acetamide]	< 6.2 µM	–	< 6.2 µM	79 µM	–
COC(=O)[C@H](CSC1CC(=O)/C(=C/C(C)C)C1C)NC(=O)OC(C)(C)C (some centres unmarked) [CTM-126]	18 µM	> 800 µM	21 µM	–	–
CC(C)(C)OC(=O)N[C@@H](CS[C@@H]1CC(=O)/C(=C/c2ccccc2)[C@H]1NC(=O)OC(C)(C)C)C(=O)O [CTM-228, (2R)-3-((1R,2R)-(E)-3-Benzylidene-2-tert-butoxycarbonylamino-4-oxocyclopentylsulfanyl)-2-tert-butoxycarbonylaminopropionic acid]	< 6.2 µM	–	< 6.2 µM	25 µM	–
COC(=O)[C@H](CS[C@@H]1CC(=O)C[C@H]1NC(=O)Oc1ccccc1)NC(=O)OC(C)(C)C [CTM-236, (R)-2-tert-Butoxycarbonylamino-3-((1R,2R)-4-oxo-2-phenoxy-carbonyl-amino-cyclopentyl-sulfanyl)-propionic acid methyl ester]	–	–	–	–	EC (2-fold HSF activity) ([2]; concentration at which the compound doubled HSF activity, HeLa clone 13B, 8 h treatment): 13 µM; IC50 ([5]; concentration that halved NF-κB activity, HeLa reporter cells, TPA 25 ng/ml, 8 h treatment): 10 µM; CC50 [8]: 76 µM
[(1R,2R)-2-(Naphthalen-2-ylsulfanyl)-4-oxocyclopentyl]-carbamic acid methyl ester; compound with benzene [CTM-238]	–	–	–	–	EC (2-fold HSF activity) [2]: 26 µM; IC50 [5]: 17 µM; CC50 [8]: 113 µM
